Results taken from patent US7531543B2, “Phenylpiperazine cycloalkanol derivatives and methods of their use” (Wyeth, priority 2003, dated 2009).
Where a name gives a salt, the structure may show the parent alone.

Biological target: T1, human hNET (Homo sapiens, UniProt P23975)
T1 construct: expressed in transfected cells; host or cells: MDCK-Net6 (MDCK cells stably transfected with hNET)
Assay: Norepinephrine (NE) uptake assay in MDCK-Net6 cells
Assay type: cell-based
Settings: [3H]NE uptake, MDCK-Net6 cells stably transfected with hNET; for EC50: test range 1 to 10,000 nM
Method: MDCK-Net6 cells, stably transfected with human hNET (Pacholczyk, T., R. D. Blakely, and S. G. Amara, Nature, 1991, 350(6316): p. 350-4) were cultured in growth medium containing high glucose DMEM (Gibco, Cat. No. 11995), 10% FBS (dialyzed, heat-inactivated, US Bio-Technologies, Lot FBD1129HI) and 500 µg/ml G418 (Gibco, Cat. No. 10131). Cells were plated at 300,000/T75 flask and cells were split twice weekly. The JAR cell line (human placental choriocarcinoma) was purchased from ATCC (Cat. No. HTB-144). The cells were cultured in growth medium containing RPMI 1640 (Gibco, Cat. No. 72400), 10% FBS (Irvine, Cat. No. 3000), 1% sodium pyruvate (Gibco, Cat. No. 1136) and 0.25% glucose. Cells were plated at 250,000 cells/T75 flask and split twice weekly. For all assays, cells were plated in Wallac 96-well sterile plates (PerkinElmer, Cat. No. 3983498).
Norepinephrine (NE) Uptake Assay
On day 1, cells were plated at 3,000 cells/well in growth medium and maintained in a cell incubator (37° C., 5% CO2). On day 2, growth medium was replaced with 200 μl of assay buffer (25 mM HEPES; 120 mM NaCl; 5 mM KCl; 2.5 mM CaCl2; 1.2 mM MgSO4; 2 mg/ml glucose (pH 7.4, 37° C.)) containing 0.2 mg/ml ascorbic acid and 10 μM pargyline. Plates containing cells with 200 μl of assay buffer were equilibrated for 10 minutes at 37° C. prior to addition of compounds. A stock solution of desipramine was prepared in DMSO (10 mM) and delivered to triplicate wells containing cells for a final test concentration of 1 μM. Data from these wells were used to define non-specific NE uptake (minimum NE uptake). Test compounds were prepared in DMSO (10 mM) and diluted in assay buffer according to test range (1 to 10,000 nM). Twenty-five microliters of assay buffer (maximum NE uptake) or test compound were added directly to triplicate wells containing cells in 200 μl of assay buffer. The cells in assay buffer with test compounds were incubated for 20 minutes at 37° C. To initiate the NE uptake, [^3H]NE diluted in assay buffer (120 nM final assay concentration) was delivered in 25 μl aliquots to each well and the plates were incubated for 5 minutes (37° C.). The reaction was terminated by decanting the supernatant from the plate. The plates containing cells were washed twice with 200 μl assay buffer (37° C.) to remove free radioligand. The plates were then inverted, left to dry for 2 minutes, then reinverted and air-dried for an additional 10 minutes. The cells were lysed in 25 μl of 0.25 N NaOH solution (4° C.), placed on a shake table and vigorously shaken for 5 minutes. After cell lysis, 75 μl of scintillation cocktail was added to each well and the plates were sealed with film tape. The plates were returned to the shake table and vigorously shaken for a minimum of 10 minutes to ensure adequate partitioning of organic and aqueous solutions. The plates were counted in a Wallac Microbeta counter (PerkinElmer) to collect the raw cpm data.
For each experiment, a data stream of cpm values collected from the Wallac Microbeta counter was downloaded to a Microsoft Excel statistical application program. Calculations of EC50 values were made using the transformed-both-sides logistic dose response program written by Wyeth Biometrics Department. The statistical program uses mean cpm values from wells representing maximum binding or uptake (assay buffer) and mean cpm values from wells representing minimum binding or uptake ((1 μM desipramine (hNET) or 1 μM paroxetine (hSERT)). Estimation of the EC50 value was completed on a log scale and the line was fit between the maximum and minimum binding or uptake values. All graphic data representation was generated by normalizing each data point to a mean percent based on the maximum and minimum binding or uptake values. The EC50 values reported from multiple experiments were calculated by pooling the raw data from each experiment and analyzing the pooled data as one experiment.

T1 sequence (P23975 whole entry): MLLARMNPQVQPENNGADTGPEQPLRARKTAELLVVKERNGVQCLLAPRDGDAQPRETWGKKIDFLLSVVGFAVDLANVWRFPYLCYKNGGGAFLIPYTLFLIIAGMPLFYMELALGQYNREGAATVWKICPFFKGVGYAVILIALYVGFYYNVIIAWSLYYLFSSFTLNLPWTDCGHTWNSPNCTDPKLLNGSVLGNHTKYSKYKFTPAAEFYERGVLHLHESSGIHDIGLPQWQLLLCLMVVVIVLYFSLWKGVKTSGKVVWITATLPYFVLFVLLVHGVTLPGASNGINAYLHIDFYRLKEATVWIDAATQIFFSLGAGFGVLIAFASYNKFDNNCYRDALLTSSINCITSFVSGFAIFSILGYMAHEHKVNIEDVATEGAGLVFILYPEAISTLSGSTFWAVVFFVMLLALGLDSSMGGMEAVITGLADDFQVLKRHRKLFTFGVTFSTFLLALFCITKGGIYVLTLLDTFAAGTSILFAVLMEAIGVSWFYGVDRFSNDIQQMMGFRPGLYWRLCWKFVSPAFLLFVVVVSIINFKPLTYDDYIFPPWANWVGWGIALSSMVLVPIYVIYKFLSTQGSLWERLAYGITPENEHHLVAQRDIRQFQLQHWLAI

SMILES	inhibition at 1 µM (1 μM test compound) [%]	EC50 [nM]	% Inhibition @ 1 μM (hNET) (1 μM test compound) [%]
OC1(C(CN2CCNCC2)c2ccccc2Br)CCCCC1 (stereo not shown) [Example 33, 1-[1-(2-bromophenyl)-2-piperazin-1-ylethyl]cyclohexanol dihydrochloride]	35		
OC1(C(CN2CCNCC2)c2cccc(Br)c2)CCCC1 (stereo not shown) [Example 16, 1-[1-(3-bromophenyl)-2-piperazin-1-ylethyl]cyclopentanol dihydrochloride]	51		
CN1CCN(CC(c2ccc(Cl)cc2)C2(O)CCC2)CC1 (stereo not shown) [Example 30, 1-[1-(4-chlorophenyl)-2-(4-methylpiperazin-1-yl)ethyl]cyclobutanol dihydrochloride]	-1		
OC1(C(CN2CCNCC2)c2cccc(F)c2)CCCCC1 (stereo not shown) [Example 9, 1-[1-(3-fluorophenyl)-2-piperazin-1-ylethyl]cyclohexanol dihydrochloride]	79	720	
CN1CCN(CC(c2ccc(Br)cc2)C2(O)CCC2)CC1 (stereo not shown) [Example 21, 1-[1-(4-bromophenyl)-2-(4-methylpiperazin-1-yl)ethyl]cyclobutanol dihydrochloride]	36		
OC1(C(CN2CCNCC2)c2ccc(Cl)cc2)CCCCC1 (stereo not shown) [Example 26, 1-[1-(4-chlorophenyl)-2-piperazin-1-ylethyl]cyclohexanol dihydrochloride]	29		
COc1ccc(C(CN2CCN(C)CC2)C2(O)CCCCCCC2)cc1Br (stereo not shown) [Example 41, 1-[1-(3-bromo-4-methoxyphenyl)-2-(4-methylpiperazin-1-yl)ethyl]cyclooctanol dihydrochloride]	48		
OC1(C(CN2CCNCC2)c2cccc(Cl)c2)CCCCCC1 (stereo not shown) [Example 8, 1-[1-(3-chlorophenyl)-2-piperazin-1-ylethyl]cycloheptanol dihydrochloride]	81		
Cl.Cl.OC1(C(CN2CCNCC2)c2ccc(Br)cc2)CCC1 (stereo not shown) [Example 20, 1-[1-(4-bromophenyl)-2-piperazin-1-ylethyl]cyclobutanol dihydrochloride]			55
OC1(C(CN2CCNCC2)c2ccc(Cl)cc2)CCC1 (stereo not shown) [Example 18, 1-[1-(4-chlorophenyl)-2-piperazin-1-ylethyl]cyclobutanol dihydrochloride]	44		
OC1(C(CN2CCNCC2)c2cccc(F)c2)CCC1 (stereo not shown) [Example 22, 1-[1-(3-fluorophenyl)-2-piperazin-1-ylethyl]cyclobutanol dihydrochloride]	34		
OC1(C(CN2CCNCC2)c2ccccc2F)CCCCC1 (stereo not shown) [Example 25, 1-[1-(2-fluorophenyl)-2-piperazin-1-ylethyl]cyclohexanol dihydrochloride]	31		
OC1(C(CN2CCNCC2)c2cccc(Cl)c2)CCCCCCC1 (stereo not shown) [Example 36, 1-[1-(3-chlorophenyl)-2-piperazin-1-ylethyl]cyclooctanol dihydrochloride]	28		
OC1(C(CN2CCNCC2)c2cccc(C(F)(F)F)c2)CCC1 (stereo not shown) [Example 14, 1-{2-piperazin-1-yl-1-[3-(trifluoromethyl)phenyl]ethyl}cyclobutanol dihydrochloride]	27		
OC1([C@H](CN2CCNCC2)c2cccc(Cl)c2)CCCCC1 [Example 34, 1-[(1S)-1-(3-chlorophenyl)-2-piperazin-1-ylethyl]cyclohexanol dihydrochloride]		25	
OC1(C(CN2CCNCC2)c2cccc(Cl)c2)CCC1 (stereo not shown) [Example 23, 1-[1-(3-chlorophenyl)-2-piperazin-1-ylethyl]cyclobutanol dihydrochloride]	28		

SMILES	inhibition at 1 µM (1 μM test compound) [%]	EC50 [nM]	% Inhibition @ 1 μM (hNET) (1 μM test compound) [%]
OC1([C@@H](CN2CCNCC2)c2cccc(Cl)c2)CCCCC1 [Example 35, 1-[(1R)-1-(3-chlorophenyl)-2-piperazin-1-ylethyl]cyclohexanol dihydrochloride]		540	
OC1(C(CN2CCNCC2)c2ccc(F)cc2)CCC1 (stereo not shown) [Example 19, 1-[1-(4-fluorophenyl)-2-piperazin-1-ylethyl]cyclobutanol dihydrochloride]	43		
CN1CCN(CC(c2ccc(F)cc2)C2(O)CCC2)CC1 (stereo not shown) [Example 32, 1-[1-(4-fluorophenyl)-2-(4-methylpiperazin-1-yl)ethyl]cyclobutanol dihydrochloride]	-10		
COc1ccc(C(CN2CCNCC2)C2(O)CCCCCCC2)cc1Br (stereo not shown) [Example 38, 1-[1-(3-bromo-4-methoxyphenyl)-2-piperazin-1-ylethyl]cyclooctanol dihydrochloride]	42		
OC1(C(CN2CCNCC2)c2cccc(Br)c2)CCCCC1 (stereo not shown) [Example 3, 1-[1-(3-bromophenyl)-2-piperazin-1-ylethyl]cyclohexanol dihydrochloride]	96	100	
OC1(C(CN2CCNCC2)c2cccc(Br)c2)CCCCCC1 (stereo not shown) [Example 7, 1-[1-(3-bromophenyl)-2-piperazin-1-ylethyl]cycloheptanol dihydrochloride]	86		
CN1CCN(CC(c2cccc(C(F)(F)F)c2)C2(O)CCC2)CC1 (stereo not shown) [Example 15, 1-{2-(4-methylpiperazin-1-yl)-1-[3-(trifluoromethyl)phenyl]ethyl}cyclobutanol dihydrochloride]	51		
OC1(C(CN2CCNCC2)c2cccc(Br)c2)CCCCCCC1 (stereo not shown) [Example 37, 1-[1-(3-bromophenyl)-2-piperazin-1-ylethyl]cyclooctanol dihydrochloride]	28		
OC1(C(CN2CCNCC2)c2ccc(F)cc2)CCCCC1 (stereo not shown) [Example 11, 1-[1-(4-fluorophenyl)-2-piperazin-1-ylethyl]cyclohexanol dihydrochloride]	60	6400	
CN1CCN(CC(c2cccc(F)c2)C2(O)CCC2)CC1 (stereo not shown) [Example 29, 1-[1-(3-fluorophenyl)-2-(4-methylpiperazin-1-yl)ethyl]cyclobutanol dihydrochloride]	12		
CN1CCN(CC(c2cccc(Br)c2)C2(O)CCCCCCC2)CC1 (stereo not shown) [Example 40, 1-[1-(3-bromophenyl)-2-(4-methylpiperazin-1-yl)ethyl]cyclooctanol dihydrochloride]	44		
OC1(C(CN2CCNCC2)c2ccc(Br)cc2)CCCCC1 (stereo not shown) [Example 17, 1-[1-(4-bromophenyl)-2-piperazin-1-ylethyl]cyclohexanol dihydrochloride]	46		
CN1CCN(CC(c2cccc(Cl)c2)C2(O)CCC2)CC1 (stereo not shown) [Example 24, 1-[1-(3-chlorophenyl)-2-(4-methylpiperazin-1-yl)ethyl]cyclobutanol dihydrochloride]	34		
C[C@@H]1CN(CC(c2cccc(Cl)c2)C2(O)CCCCC2)CCN1 (stereo partly drawn) [Example 5, 1-{1-(3-chlorophenyl)-2-[(3R)-3-methylpiperazin-1-yl]ethyl}cyclohexanol dihydrochloride]	94	110	
COc1ccc(C(CN2CCNCC2)C2(O)CCCC2)cc1Br (stereo not shown) [Example 13, 1-[1-(3-bromo-4-methoxyphenyl)-2-piperazin-1-ylethyl]cyclopentanol dihydrochloride]	53		
C[C@H]1CN(CC(c2cccc(Cl)c2)C2(O)CCCCC2)CCN1 (stereo partly drawn) [Example 4, 1-{1-(3-chlorophenyl)-2-[(3S)-3-methylpiperazin-1-yl]ethyl}cyclohexanol dihydrochloride]	95	59	
